Source: US9371281B2, “Indole derivatives as inhibitors of histone deacetylase” (Pharmacyclics LLC, priority 2006, dated 2016)

How the values were obtained:
Format in all cases: biochemical
[1] = molecular target: T1, HDAC8 (Homo sapiens, UniProt Q9BY41); assay: Inhibition of HDAC8 deacetylase activity in vitro
T1 sequence (Q9BY41 1-377): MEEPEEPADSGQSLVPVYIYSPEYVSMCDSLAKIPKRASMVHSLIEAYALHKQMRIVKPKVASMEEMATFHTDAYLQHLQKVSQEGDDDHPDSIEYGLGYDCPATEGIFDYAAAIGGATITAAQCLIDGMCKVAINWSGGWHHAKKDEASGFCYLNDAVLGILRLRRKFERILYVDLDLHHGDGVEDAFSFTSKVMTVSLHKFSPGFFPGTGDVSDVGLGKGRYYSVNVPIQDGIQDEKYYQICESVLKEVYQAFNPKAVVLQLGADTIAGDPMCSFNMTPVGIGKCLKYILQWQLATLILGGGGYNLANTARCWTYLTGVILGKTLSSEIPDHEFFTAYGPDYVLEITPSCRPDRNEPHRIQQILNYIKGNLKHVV

[2] = molecular target: HDAC1 (Homo sapiens, UniProt Q13547); assay: Inhibition of HDAC1 deacetylase activity in vitro; conditions: ratio of IC50 values
Chain of HDAC1 (Q13547 whole entry): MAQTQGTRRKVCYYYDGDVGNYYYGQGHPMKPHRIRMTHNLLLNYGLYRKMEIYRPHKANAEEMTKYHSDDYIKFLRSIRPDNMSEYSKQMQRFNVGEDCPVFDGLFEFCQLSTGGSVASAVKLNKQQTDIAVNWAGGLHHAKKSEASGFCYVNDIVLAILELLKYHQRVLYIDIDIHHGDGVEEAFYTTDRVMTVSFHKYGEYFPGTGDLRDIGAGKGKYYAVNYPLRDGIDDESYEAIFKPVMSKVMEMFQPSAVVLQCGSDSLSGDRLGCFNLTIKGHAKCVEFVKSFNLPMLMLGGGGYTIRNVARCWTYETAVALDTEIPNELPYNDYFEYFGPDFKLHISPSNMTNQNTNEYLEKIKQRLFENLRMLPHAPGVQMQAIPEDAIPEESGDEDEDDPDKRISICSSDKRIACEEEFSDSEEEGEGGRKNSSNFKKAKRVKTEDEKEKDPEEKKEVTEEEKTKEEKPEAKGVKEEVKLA

[3] = molecular target: HDAC2 (Homo sapiens, UniProt Q92769); assay: Inhibition of HDAC2 deacetylase activity in vitro; conditions: ratio of IC50 values
Chain of HDAC2 (Q92769 whole entry): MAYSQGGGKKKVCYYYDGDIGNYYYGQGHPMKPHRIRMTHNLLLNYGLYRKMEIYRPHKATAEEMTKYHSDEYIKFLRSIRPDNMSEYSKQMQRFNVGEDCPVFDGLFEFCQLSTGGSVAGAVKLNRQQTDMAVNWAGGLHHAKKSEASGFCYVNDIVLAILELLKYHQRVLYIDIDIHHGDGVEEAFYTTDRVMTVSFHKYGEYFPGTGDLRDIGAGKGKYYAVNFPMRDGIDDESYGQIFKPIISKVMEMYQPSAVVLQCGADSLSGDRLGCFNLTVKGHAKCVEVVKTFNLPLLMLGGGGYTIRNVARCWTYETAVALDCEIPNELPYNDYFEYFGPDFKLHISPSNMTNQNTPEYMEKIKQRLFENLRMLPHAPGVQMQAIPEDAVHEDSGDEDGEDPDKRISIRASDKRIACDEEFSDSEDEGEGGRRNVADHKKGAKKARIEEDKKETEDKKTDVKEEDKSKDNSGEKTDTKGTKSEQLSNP

[4] = molecular target: HDAC3 (Homo sapiens, UniProt O15379); assay: Inhibition of HDAC3 deacetylase activity in vitro; conditions: ratio of IC50 values
Chain of HDAC3 (O15379 whole entry): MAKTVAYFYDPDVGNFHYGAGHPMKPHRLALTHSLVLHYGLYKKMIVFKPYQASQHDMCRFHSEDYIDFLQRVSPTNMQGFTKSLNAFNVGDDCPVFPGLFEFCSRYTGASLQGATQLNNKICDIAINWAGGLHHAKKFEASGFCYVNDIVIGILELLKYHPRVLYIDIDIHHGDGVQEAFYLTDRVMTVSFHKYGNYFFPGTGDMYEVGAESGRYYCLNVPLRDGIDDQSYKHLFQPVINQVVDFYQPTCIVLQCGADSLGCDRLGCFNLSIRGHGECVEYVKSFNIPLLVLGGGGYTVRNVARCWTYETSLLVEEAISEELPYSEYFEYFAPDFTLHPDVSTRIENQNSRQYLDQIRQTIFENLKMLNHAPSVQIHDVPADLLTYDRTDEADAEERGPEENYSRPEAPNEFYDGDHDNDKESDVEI
Chain of HDAC3 (Q9Y618 389-480 partner limits assumed): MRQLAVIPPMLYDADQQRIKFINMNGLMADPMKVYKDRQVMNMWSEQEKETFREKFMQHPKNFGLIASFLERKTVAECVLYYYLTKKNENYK

[5] = molecular target: HDAC6 (Homo sapiens, UniProt Q9UBN7); assay: Inhibition of HDAC6 deacetylase activity in vitro; conditions: ratio of IC50 values
Chain of HDAC6 (Q9UBN7 whole entry): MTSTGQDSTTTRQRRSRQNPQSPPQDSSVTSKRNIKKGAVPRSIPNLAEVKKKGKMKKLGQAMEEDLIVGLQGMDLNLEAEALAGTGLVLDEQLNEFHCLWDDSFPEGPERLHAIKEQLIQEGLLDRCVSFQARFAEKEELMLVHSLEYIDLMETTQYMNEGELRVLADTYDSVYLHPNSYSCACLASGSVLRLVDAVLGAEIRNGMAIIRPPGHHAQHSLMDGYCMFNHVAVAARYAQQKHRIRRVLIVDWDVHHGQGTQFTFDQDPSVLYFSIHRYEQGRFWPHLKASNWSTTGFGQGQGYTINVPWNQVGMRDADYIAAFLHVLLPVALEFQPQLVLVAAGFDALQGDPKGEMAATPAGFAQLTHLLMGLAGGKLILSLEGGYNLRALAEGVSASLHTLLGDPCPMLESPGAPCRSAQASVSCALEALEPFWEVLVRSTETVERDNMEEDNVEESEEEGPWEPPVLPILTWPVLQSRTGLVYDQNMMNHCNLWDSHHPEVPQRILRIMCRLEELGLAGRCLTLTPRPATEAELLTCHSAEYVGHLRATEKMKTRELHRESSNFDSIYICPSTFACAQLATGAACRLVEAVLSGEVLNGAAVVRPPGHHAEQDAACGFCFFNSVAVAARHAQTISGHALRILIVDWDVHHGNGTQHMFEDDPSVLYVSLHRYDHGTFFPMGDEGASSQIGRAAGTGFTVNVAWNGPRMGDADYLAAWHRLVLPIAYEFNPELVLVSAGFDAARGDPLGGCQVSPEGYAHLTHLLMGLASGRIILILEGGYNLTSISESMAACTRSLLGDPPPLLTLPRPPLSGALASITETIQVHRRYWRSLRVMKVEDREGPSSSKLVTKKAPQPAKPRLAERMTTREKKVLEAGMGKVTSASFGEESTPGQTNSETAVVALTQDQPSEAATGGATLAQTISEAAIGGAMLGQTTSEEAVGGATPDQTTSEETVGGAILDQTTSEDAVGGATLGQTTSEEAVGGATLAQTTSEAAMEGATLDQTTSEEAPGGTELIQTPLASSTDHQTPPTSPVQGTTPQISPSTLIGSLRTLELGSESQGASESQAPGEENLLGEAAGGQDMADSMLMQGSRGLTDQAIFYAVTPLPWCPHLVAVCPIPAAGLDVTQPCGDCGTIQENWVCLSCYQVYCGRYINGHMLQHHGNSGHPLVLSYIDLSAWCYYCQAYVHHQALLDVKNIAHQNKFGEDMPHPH

[6] = molecular target: HDAC10 (Homo sapiens, UniProt Q969S8); assay: Inhibition of HDAC10 deacetylase activity in vitro; conditions: ratio of IC50 values
Chain of HDAC10 (Q969S8 whole entry): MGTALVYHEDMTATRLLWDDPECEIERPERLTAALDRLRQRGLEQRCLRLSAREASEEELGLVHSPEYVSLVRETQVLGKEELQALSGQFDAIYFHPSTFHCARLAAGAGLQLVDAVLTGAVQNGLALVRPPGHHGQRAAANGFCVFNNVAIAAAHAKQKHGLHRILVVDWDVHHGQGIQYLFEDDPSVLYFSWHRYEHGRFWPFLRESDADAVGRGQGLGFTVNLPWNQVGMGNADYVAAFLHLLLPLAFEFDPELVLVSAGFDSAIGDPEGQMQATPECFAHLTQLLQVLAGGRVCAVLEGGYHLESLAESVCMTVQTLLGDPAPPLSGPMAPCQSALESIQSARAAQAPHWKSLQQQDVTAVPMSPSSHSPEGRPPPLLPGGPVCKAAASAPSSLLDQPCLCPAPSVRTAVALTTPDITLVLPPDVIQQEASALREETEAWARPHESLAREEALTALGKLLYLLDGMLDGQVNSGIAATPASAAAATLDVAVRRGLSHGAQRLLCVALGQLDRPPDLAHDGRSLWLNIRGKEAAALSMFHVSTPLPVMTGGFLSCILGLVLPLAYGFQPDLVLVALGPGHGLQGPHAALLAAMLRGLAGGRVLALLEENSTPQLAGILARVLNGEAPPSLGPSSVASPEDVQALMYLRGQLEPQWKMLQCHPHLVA

Row | IC50 [1] [µM] | HDAC-1/HDAC-8 [2] | HDAC-2/HDAC-8 [3] | HDAC-3/HDAC-8 [4] | HDAC-6/HDAC-8 [5] | HDAC-10/HDAC-8 [6] | Structure (SMILES)
1 | < 0.1 | A (A >10 and <100) | – | – | – | – | O=C(NO)c1ccc2ccn(Cc3ccc(Cl)c(Cl)c3)c2c1 [Compound 1, 1-(3,4-dichloro-phenylmethyl)-1H-indole-6-carboxylic acid hydroxyamide]
2 | < 0.1 | A (A >10 and <100) | – | – | – | – | Cc1ccccc1Cn1ccc2ccc(C(=O)NO)cc21 [Compound 2, 1-(2-methyl-phenylmethyl)-1H-indole-6-carboxylic acid hydroxyamide]
3 | > 0.1 | A (A >10 and <100) | – | – | – | – | COc1cc(Cn2ccc3ccc(C(=O)NO)cc32)cc(OC)c1OC [Compound 3, 1-(3,4,5-trimethoxy-phenylmethyl)-1H-indole-6-carboxylic acid hydroxyamide]
4 | < 0.1 | A (A >10 and <100) | – | – | – | – | O=C(NO)c1ccc2ccn(Cc3cccc(F)c3)c2c1 [Compound 4, 1-(3-fluoro-phenylmethyl)-1H-indole-6-carboxylic acid hydroxyamide]
5 | < 0.1 | A (A >10 and <100) | – | – | – | – | Cc1cccc(Cn2ccc3ccc(C(=O)NO)cc32)c1 [Compound 5, 1-(3-methyl-phenylmethyl)-1H-indole-6-carboxylic acid hydroxyamide]
6 | < 0.1 | A (A >10 and <100) | – | – | – | – | O=C(NO)c1ccc2ccn(Cc3ccccc3)c2c1 [Compound 6, 1-(benzyl)-1H-indole-6-carboxylic acid hydroxyamide]
7 | < 0.1 | A (A >10 and <100) | – | – | – | – | COc1cc(Cn2ccc3ccc(C(=O)NO)cc32)cc(OC)c1 [Compound 7, 1-(3,5-dimethoxy-phenylmethyl)-1H-indole-6-carboxylic acid hydroxyamide]
8 | < 0.1 | A (A >10 and <100) | – | – | – | – | CC(c1ccccc1)n1ccc2ccc(C(=O)NO)cc21 (stereo not shown) [Compound 8, 1-(1-methyl-1-phenylmethyl)-1H-indole-6-carboxylic acid hydroxyamide]
9 | < 0.1 | A (A >10 and <100) | – | – | – | – | O=C(NO)c1ccc2ccn(Cc3ccc(F)cc3)c2c1 [Compound 9, 1-(4-fluoro-phenylmethyl)-1H-indole-6-carboxylic acid hydroxyamide]
10 | < 0.1 | A (A >10 and <100) | – | – | – | – | O=C(NO)c1ccc2ccn(Cc3ccccc3F)c2c1 [Compound 10, 1-(2-fluoro-phenylmethyl)-1H-indole-6-carboxylic acid hydroxyamide]
11 | < 0.1 | A (A >10 and <100) | – | – | – | – | O=C(NO)c1ccc2ccn(Cc3ccccc3Cl)c2c1 [Compound 11, 1-(2-chloro-phenylmethyl)-1H-indole-6-carboxylic acid hydroxyamide]
12 | < 0.1 | A (A >10 and <100) | – | – | – | – | COc1cccc(Cn2ccc3ccc(C(=O)NO)cc32)c1 [Compound 12, 1-(3-methoxy-phenylmethyl)-1H-indole-6-carboxylic acid hydroxyamide]
13 | < 0.1 | A (A >10 and <100) | – | – | – | – | O=C(NO)c1ccc2ccn(Cc3ccc4ccccc4c3)c2c1 [Compound 13, 1-(naphth-2-ylmethyl)-1H-indole-6-carboxylic acid hydroxyamide]
14 | < 0.1 | A (A >10 and <100) | – | – | – | – | O=C(NO)c1ccc2ccn(CCCc3ccccc3)c2c1 [Compound 14, 1-(3-phenylpropyl)-1H-indole-6-carboxylic acid hydroxyamide]
15 | < 0.1 | A (A >10 and <100) | – | – | – | – | O=C(NO)c1ccc2ccn(CC3CCCCC3)c2c1 [Compound 15, 1-(cyclohexylmethyl)-1H-indole-6-carboxylic acid hydroxyamide]
16 | < 0.1 | B (B >100) | – | – | – | – | O=C(NO)c1ccc2ccn(CC=Cc3ccccc3)c2c1 [Compound 16, 1-[1-(phenyl)-propen-3-yl]-1H-indole-6-carboxylic acid hydroxyamide]
17 | < 0.1 | B (B >100) | – | – | – | – | O=C(NO)c1ccc2ccn(Cc3ccc(OC(F)(F)F)cc3)c2c1 [Compound 17, 1-[4-(trifluoromethoxy)-phenylmethyl]-1H-indole-6-carboxylic acid hydroxyamide]
18 | < 0.1 | B (B >100) | – | – | – | – | O=C(NO)c1ccc2ccn(Cc3ccc(Cl)cc3)c2c1 [Compound 18, 1-(4-chloro-phenylmethyl)-1H-indole-6-carboxylic acid hydroxyamide]
19 | < 0.1 | B (B >100) | – | – | – | – | O=C(NO)c1ccc2ccn(Cc3ccc4nonc4c3)c2c1 [Compound 19, 1-(benzo[2,1,3]oxadiazol-5-ylmethyl)-1H-indole-6-carboxylic acid hydroxyamide]
20 | < 0.1 | B (B >100) | – | – | – | – | Cc1ccc(Cn2ccc3ccc(C(=O)NO)cc32)cc1 [Compound 20, 1-(4-methyl-phenylmethyl)-1H-indole-6-carboxylic acid hydroxyamide]
21 | < 0.1 | B (B >100) | – | – | – | – | COc1ccc(Cn2ccc3ccc(C(=O)NO)cc32)cc1F [Compound 21, 1-(3-fluoro-4-methoxy-phenylmethyl)-1H-indole-6-carboxylic acid hydroxyamide]
22 | < 0.1 | B (B >100) | – | – | – | – | O=C(NO)c1ccc2ccn(Cc3ccc(OC(F)F)cc3)c2c1 [Compound 22, 1-[4-(difluoromethoxy)-phenylmethyl]-1H-indole-6-carboxylic acid hydroxyamide]
23 | < 0.1 | A (A >10 and <100) | B (B >100) | A (A >10 and <100) | A (A >10 and <100) | B (B >100) | Cn1cc(Cc2ccc([N+](=O)[O-])cc2)c2cc(C(=O)NO)ccc21 [Compound 34, 1-methyl-3-(4-nitro-phenylmethyl)-1H-indole-5-carboxylic acid hydroxyamide]
24 | < 0.1 | A (A >10 and <100) | – | – | – | – | CCn1cc(Cc2ccccc2)c2cc(C(=O)NO)ccc21 [Compound 35, 1-ethyl-3-(phenylmethyl)-1H-indole-5-carboxylic acid hydroxyamide]
25 | < 0.1 | A (A >10 and <100) | – | – | – | – | Cn1cc(Cc2ccc(NC(=O)c3ccccc3)cc2)c2cc(C(=O)NO)ccc21 [Compound 36, 1-methyl-3-[4-(phenylcarbonylamino)-phenylmethyl]-1H-indole-5-carboxylic acid hydroxyamide]
26 | < 0.1 | A (A >10 and <100) | – | – | – | – | CC(C)n1cc(Cc2ccccc2)c2cc(C(=O)NO)ccc21 [Compound 37, 1-isopropyl-3-(phenylmethyl)-1H-indole-5-carboxylic acid hydroxyamide]
27 | < 0.1 | A (A >10 and <100) | – | – | – | – | Cn1cc(Cc2ccc(N)cc2)c2cc(C(=O)NO)ccc21 [Compound 38, 1-methyl-3-(4-amino-phenylmethyl)-1H-indole-5-carboxylic acid hydroxyamide]
28 | < 0.1 | B (B >100) | B (B >100) | A (A >10 and <100) | A (A >10 and <100) | B (B >100) | Cn1cc(Cc2ccc(F)cc2)c2cc(C(=O)NO)ccc21 [Compound 39, 1-methyl-3-(4-fluoro-phenylmethyl)-1H-indole-5-carboxylic acid hydroxyamide]
